Experimental data taken from patent EP0432974A1, “Cyclic renin inhibitors” (MERCK & CO. INC., priority 1989, dated 1991).
Square brackets hold non-standard residues; d marks the D form. Peptide text beside a SMILES is read from it. * marks the point of attachment. Sta = CC(C)C[C@H](N)[C@@H](O)CC(=O)O; Isovaleryl = CC(C)CC(=O)*

Tests used:
human plasma renin = human plasma renin IC50 determination at pH 7.4; type: biochemical
Experimental: The following method was used for in vitro evaluation of the renin inhibitors of Formula I : The human plasma renin IC50 values for inhibitors of Formula I were determined at pH 7.4 following the procedure described in J. Boger, L.S. Payne, D.S. Perlow, N.S. Lohr, M. Poe, E.H. Blaine, E.H. Ulm, T.W. Schorn, B.I. Lamont, T.Y. Lin, M. Kawai, D.H. Rich and D.F. Veber, J. Med. Chem., 28,1779 (1985).

[1] = test system: sodium-deficient Rhesus monkeys; assay: intravenous evaluation of renin inhibitors in conscious sodium-deficient Rhesus monkeys (blood pressure lowering); type: in vivo; details: i.v. bolus
Source text: The following methods were used for in vivo evaluation of the renin inhibitors of Formula I : Intravenous evaluation of renin inhibitors in concious sodium-deficient Rhesus monkeys : Rhesus monkeys, male and female, weighing 2.6-4.5 Kg, were surgically prepared with chronic arterial and venous catheters and vascular access ports for direct monitoring of mean arterial pressure (MAP) and heart rate (HR). The animals were maintained on a low sodium diet (1.2 mmol Nalday) plus friut for a week, and administered LASIX (furosemide) at 2.5 mg/Kg, intramuscularly the evening prior to the experiment The animals had been trained to sit quietly in the chairs with water ad libium for the duration of the experiment. The inhibitors were administered by bolus injection using 0.5% acetic acid-5% dextrose in water as the vehicle (0.4 ml/Kg), and MAP and HR were measured. Blood samples were withdrawn at different time intervals beginning at the nadir of hypotensive response. PRAwas determined as described above. […] A projected ED50 dose for each inhibitor was calculated using the following furmula : ED50 (Test Inhibitor, umoles/Kg) = ED50 (SCRIP) X [ICso (Test Inhibitor)/ICso (SCRIP)], where the IC50 values were determined against human plasma renin. […] Percent inhibition of monkey PRA, changes in MAP and HR were calculated and plotted against time. […]

In the case of `CC(C)CC(=O)N[C@@H](Cc1c[nH]cn1)C(=O)N1CCC[C@H]1C(=O)N[C@@H](Cc1ccccc1)C(=O)N[C@@H](Cc1c[nH]cn1)C(=O)N[C@@H](CC(C)C)[C@@H](O)CC(=O)N[C@@H](CC(C)C)C(=O)N[C@@H](Cc1ccccc1)C(N)=O` [SCRIP, Iva-His-Pro-Phe-His-Sta-Leu-Phe-NH2] (Isovaleryl-HPFH[Sta]LF-NH2), the IC50 (human plasma renin) is reported as 3.7 nM and the “ED50 (i.v. dose required to lower blood pressure by 50% of the maximal response)” value [1] is reported as 0.039 µmol/kg.
